As usually defined, the IC50 is the concentration needed to halve the response being measured.

We go through six compounds from patent US9629848B2, “Compounds that modulate autoimmunity and methods of using the same” (The Regents of the University of Colorado, a body corporate, priority 2011, dated 2017).

Assay [1] deals with BDC 8-1.1α1 anti-B:9-23 T cell hybridoma. As to the kind of experiment: T cell stimulation assay, B:9-23 activated TCR 8-1.1α1. Type of assay: cell-based. Particulars: Mus musculus, read-out: IC50 for anti-B:9-23 TCRs 8-1.1α1.
For assay [2], the system named is BDC 12-4.1 anti-B:9-23 T cell hybridoma. Description: T cell stimulation assay, B:9-23 activated TCR BDC 12-4.1. It is filed as cell-based. Particulars: Mus musculus, read-out: IC50 for anti-B:9-23 TCRs BDC 12-4.1.
In assay [3] the test system is human T cell receptor recognizing insulin B:9-23 presented by human DQ8. As to the kind of experiment: Inhibition of human T cell receptor recognizing insulin B:9-23 presented by human DQ8. It is filed as cell-based. The note with it: for Concentration at which inhibition is exhibited: DQ8 pocket 1 and pocket 9 compounds studied in detail; for Inhibition of human T cell receptor recognition of insulin B:9-23 presented by human DQ8: screen of DQ8 pocket 1 and pocket 9 compounds. The text has this: Using a TCR sequence obtained from a T cell line generated from the peripheral blood of a diabetic individual with DQ8 molecule, a TCR was identified that is DQ8 restricted and responds to the insulin B:9-23 peptide.
Molecules predicted to occupy pockets 1 and 9 of the human DQ8 peptide binding groove were identified using in silico molecular docking program. The top scoring compounds for each pocket were screened for their ability to inhibit anti-B:9-23 T cell responses. FIGS. 9A and 9B represent the results of the T cell stimulation assay for compounds occupying pocket 1 and pocket 9 of the human DQ8 peptide binding groove, respectively.

The subject of assay [4] is CD3-stimulated T cell hybridomas. Description: CD3-stimulated T cell hybridomas (specificity control). It is filed as cell-based. The text has this:
The small molecules p1:4, p1:12 and p1:16 were studied in additional detail.

The next assay relates to BDC 2.5 T cell hybridoma. Description: Chromogranin peptide mimotope presentation by I-A^g^7 to BDC 2.5 T cell hybridoma. It is filed as cell-based, mouse. The note with it: specificity test.
Another assay concerns the target DQ8 (Homo sapiens, UniProt P01909+P01920, A209T/A45G/C70Q/D89A/DUP78-78/E183D/E77G/F237L/G63E/H199R/I129T/K197E/L178F/L74F/L98V/Q57E/Q76R/S185I/S97I/T217I/T49S/V73L/Y58L). Description: Competitive binding assay B:9-23 to DQ8.
Assay [5] concerns 5KC cells transduced with a 4-8 TCR. Description: Endogenous insulin presentation: whole insulin with I-A^g^7 splenocytes and 4-8 TCR transduced 5KC cells. Type of assay: cell-based, mouse. The note with it: whole insulin with I-A^g^7 containing splenocytes. The procedure: The ability of the small molecules to block endogenous insulin presentation was tested. Incubation of whole insulin with I-A^g^7 containing splenocytes activates 5KC cells (T cell hybridoma lacking endogenous TCRα and β chains) transduced with a 4-8 TCR. […] To document direct effects of these small molecules on inhibiting peptide binding to I-A^g^7, an I-A^g^7 protein construct was expressed in baculovirus with a linked peptide. The flexible linker contained a thrombin cleavage site, allowing for thrombin cleavage of the linker and release of the peptide.

On to `O=S1(=O)N2CN3CCN(C2)N1C3`, for which the IC50 in assay [1] is 28.4 µM; in assay [2], 0.5 µM.

For `O=Nc1c(S(=O)(=O)O)cc2cc(S(=O)(=O)O)cc(O)c2c1O` [p1:4, 4,5-dihydroxy-3-nitroso-2,7-naphthalenedisulfonic acid], in assay [3], the “Concentration at which inhibition is exhibited” value is given as “nanomolar” and the “Inhibition of human T cell receptor recognition of insulin B:9-23 presented by human DQ8” value (“Inhibition … by human DQ8” for short) is “able to inhibit”. Besides, in assay [4], the “Response of CD3-stimulated T cell hybridomas” value (“Response” below) is “did not change response”.

For the compound `NC(=O)c1cc(Br)cc(C2CCCCC2)c1O` [p1:12, 5-bromo-3-cyclohexyl-2-hydroxybenzamide], in assay [3], the “Concentration at which inhibition is exhibited” value is “nanomolar” and the “Inhibition … by human DQ8” value is “able to inhibit”. The “Response” value in assay [4] was “did not change response”.

In the case of `O=C(O)COc1ccc(I)cc1I` [p1:16, (2,4-diiodophenoxy)acetic acid], in assay [3], the “Concentration at which inhibition is exhibited” value is recorded as “nanomolar” and the “Inhibition … by human DQ8” value is reported as “able to inhibit”. Moreover, in assay [4], the “Response” value is “did not change response”.

Consider `O=[PH](O)C(O)c1ccccc1` (stereo not drawn) [p6:17], for which the “Inhibition of chromogranin presentation to the BDC 2.5 hybridoma” value in the assay on BDC 2.5 T cell hybridoma is recorded as “no inhibition”. The compound further gave an IC50 on DQ8 of more than 100 µM.

In the case of `CN(C)C(Cl)(N(C)C)C(Cl)(N(C)C)N(C)C` [p6:18], the IC50 at DQ8 was more than 100 µM. The “IC50 for blocking T cell stimulation from endogenously processed insulin” value in assay [5] was “low nanomolar”.
